# Measurements reported in US7368286B2, “Method and device for identifying substances capable of modulating adipocyte differentiation” (Genfit, priority 2002, dated 2008).
# System: aP2 and PPAR GAMMA receptor mRNA in 3T3-L1 cells
# Assay: Northern blot of adipocyte markers in 3T3-L1 cells infected with MFG-Neo or MFG-REV retrovirus
# Assay type: cell-based
# Settings: control cells (MFG-Neo)
# Method: 3T3-L1 cells were infected with either MFG-Neo or MFG-REV retrovirus and treated for 8 days with a mixture containing IBMX and insulin (“Mix”), with or without 1 μM rosiglitazone. mRNA was then extracted and analyzed by Northern blot using the indicated probes.
# RNA extraction and Northern blot analyses were carried out according to the previously described method (Staels, B. et al., Arteriosclerosis and Thrombosis 1992, 12(3): 286-294) using rat Rev-erb alpha, murine PPAR gamma and murine aP2, chicken beta-actin and human 36B4 cDNA probes.
# Cells post-confluent after two days of culture (designated day D0) were transferred to differentiation medium (DMEM, 10% FCS, 1 μM dexamethasone, 10 μg/ml insulin and 0.5 mM 3-methyl-1-isobutylxanthine (IBMX) (Sigma, St Louis, Mo., USA)) for two days. Cells were then grown in post-differentiation medium (DMEM, 10% FCS, insulin) with or without rosiglitazone. The medium was changed every day. Stable 3T3-L1 pre-adipocytes expressing the REV-ERB ALPHA receptor were grown in the same conditions but differentiated without dexamethasone. After the treatment, cells were fixed with 10% formaldehyde in PBS and stained with Oil Red O (Sigma, St Louis, Mo., USA). Alternatively, total RNA was extracted as described earlier.
# 3T3-L1 pre-adipocytes were then infected with the resulting virus. […]
compound,measurement,value
CN(CCOc1ccc(CC2SC(=O)NC2=O)cc1)c1ccccn1 (stereo not shown) [rosiglitazone],time until high aP2 and PPAR GAMMA receptor mRNA levels were observed,8 to 12 days
